From patent publication US7262185B2, “Benzazepine derivative, process for producing the same, and use” (Takeda Chemical Industries Ltd., priority 2001, dated 2007) come the findings set out here.

T1 sequence (P51681 whole entry): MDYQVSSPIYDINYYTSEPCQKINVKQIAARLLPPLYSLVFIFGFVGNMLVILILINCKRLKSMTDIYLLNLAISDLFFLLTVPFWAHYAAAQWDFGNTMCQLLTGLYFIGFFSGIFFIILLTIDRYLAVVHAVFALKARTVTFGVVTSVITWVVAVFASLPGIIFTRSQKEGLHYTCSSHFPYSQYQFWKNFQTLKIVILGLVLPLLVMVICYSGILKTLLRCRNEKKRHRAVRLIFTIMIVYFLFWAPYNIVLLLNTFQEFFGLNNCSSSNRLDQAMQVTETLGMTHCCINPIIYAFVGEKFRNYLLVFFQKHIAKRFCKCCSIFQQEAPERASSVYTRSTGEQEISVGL

The first experiment concerns the target T1, human CCR5 chemokine receptor (Homo sapiens, UniProt P51681).
T1 construct: expressed in transfected cells
Nature of the experiment: Inhibition of [125I]-RANTES binding to CCR5/CHO cells (CCR5 antagonistic activity). The conditions noted are these: 40 min, test compound 1 μM, [125I]-RANTES as ligand, room temperature, read-out: Binding Inhibitory Ratio (%). Here is the method:
Cloning of CCR5 gene from human spleen cDNA was conducted using the PCR method. Using spleen cDNA (0.5 ng) (TOYOBO CO., LTD, QUICK-Clone cDNA) as a template, PCR was performed in a DNA Thermal Cycler 480 (manufactured by Perkin Elmer) (reaction conditions: 30 cycles of 95° C. for 1 minute, 60° C. for 1 minute, and 75° C. for 5 minutes) by adding primer sets, SEQ. ID NO: 1 (sequence length: 34; sequence type: nucleic acid; chain number: single strand; topology: linear; kind of sequence: other nucleic acid synthetic. DNA) described in Experimental. Example (1) of WO 99/32100, and SEQ ID NO: 2 (sequence length: 34; sequence type: nucleic acid; chain number: single strand; topology: linear; kind of sequence: other nucleic acid synthetic. DNA) described in Experimental. Example (1) of WO 99/32100, (25 pmol, respectively), which were prepared referring to the nucleotide sequence of CCR5 gene, as reported by Samson et al. (Biochemistry 35 (11), 3362-3367 (1996)) and by using TaKaRa. EX Taq (Takara Shuzo). The resultant. PCR product was subjected to agarose gel electrophoresis to collect an approximately 1.0 kb. DNA fragment, which was subjected to an Original TA Cloning Kit (Funakoshi Co., Ltd.) to carry out cloning of CCR5 gene.
The plasmid obtained above was digested with restriction enzymes XbaI (Takara Shuzo Co., Ltd.) and BamHI (Takara Shuzo Co., Ltd.), and then subjected to agarose gel electrophoresis to collect DNA fragment of about 1.0 kb. The DNA fragment and plasmid pcDNA 3.1 (Funakoshi. Co., Ltd.) for expression in animal cells, which was previously digested with XbaI and BamHI, were mixed and ligated by DNA Ligation Kit Ver. 2 (Takara Shuzo Co., Ltd.). The resulting plasmid was subjected to transformation into. E. coli JM109 competent cells (Takara Shuzo Co., Ltd.) to obtain plasmid pCKR5.
CHO-K1 cells were cultured in a 750-ml tissue culture flask (Becton, Dickinson and Company.) using. Ham F12 medium (NIHON PHARMACEUTICAL CO., LTD.) containing 10% fetal bovine serum (Lifetech Oriental) and were collected using 0.5 g/L trypsin-0.2 g/L EDTA (Lifetech Oriental). The cells were washed with PBS (Lifetech Oriental), centrifuged (1000 rpm, 5 minutes), and suspended in PBS. The DNA was introduced into the cells using a Gene Pulser (Bio-Rad Laboratories, Inc.) under the following conditions. Namely, 8×10^6 cells and 10 μg of plasmid pCKR5 for expression of human CCR5 were placed in a cuvette having a 0.4-cm gap, and electroporation was carried out with a voltage 0.25 kV and 960 μF of capacitance. Then, the cells were transferred into Ham's. F12 medium containing 10% fetal bovine serum, and incubated for 24 hours. The cells were collected, centrifuged, and suspended in Ham' F12 medium containing 10% fetal bovine serum and Geneticin (Lifetech Oriental) at a concentration of 500 μg/ml. The suspension of cells was diluted to a concentration of 10^4 cells/ml, and was inoculated onto 96-well plate (Becton Dickinson), to obtain Geneticin-resistant strain.
Then, resulting. Geneticin-resistant strain were cultured on 96-well plate (Becton Dickinson), and CCR5-expressing cells were selected from the resistant cells. Namely, in an assay buffer, (Ham's F12 medium containing 0.5% BSA, and 20 mM HEPES (Wako Pure Chemical Ind., pH 7.2)) to which was added […][125I]-RANTES (Amersham) as a ligand, the cells were subjected to a binding reaction at room temperature for 40 minutes. Wells containing the cells were washed with ice-cooled PBS, and 50 μl/well of 1M NaOH was added and stirred. The cells to which the ligand was bound specifically, i.e., CCR5/CHO cells, were selected by measurement of radioactivity using a […].
The CCR5/CHO cells were inoculated onto 96-well microplate at a concentration of 5×10^4 cells/well, and were cultured for 24 hours. After removal of the medium by aspiration, to each well was added an assay buffer containing a test compound (1 μM), and [125I]/RANTES (Amersham) used as a ligand at a concentration of […]. […]
On to `CCCCOCCOc1ccc(-c2ccc3c(c2)C=C(C(=O)Nc2ccc([S+]([O-])Cc4nncn4CCC)cc2)CCN3CCC)cc1` (stereo not drawn) [Compound 141, 7-[4-(2-butoxyethoxy)phenyl]-1-propyl-N-[4-(4-propyl-4H-1,2,4-triazol-3-ylmethylsulfinyl)phenyl]-2,3-dihydro-1H-benzazepine-4-carboxamide], for which the inhibition at 1 µM amounted to 100%.

In the case of `CCCCOCCOc1ccc(-c2ccc3c(c2)C=C(C(=O)Nc2ccc4nc([S+]([O-])Cc5cncn5CCC)[nH]c4c2)CCN3CC(C)C)cc1` (stereo not drawn) [Compound 313, 7-[4-(2-butoxyethoxy)phenyl]-1-isobutyl-N-[2-[[(1-propylimidazol-5-yl)methyl]sulfinyl]benzimidazol-5-yl]-2,3-dihydro-1-benzazepine-4-carboxamide], the inhibition at 1 µM turned out to be 95%.

As to `CCCCOCCOc1ccc(-c2ccc3c(c2)C=C(C(=O)Nc2ccc(CSc4nncn4C)cc2)CCN3CC(C)C)cc1` [Compound 117, 7-[4-(2-butoxyethoxy)phenyl]-N-[4-(4-methyl-4H-1,2,4-triazol-3-ylthiomethyl)phenyl]-1-isobutyl-2,3-dihydro-1H-1-benzazepine-4-carboxamide], the inhibition at 1 µM stood at 95%.

As to `CCCCOCCOc1ccc(-c2ccc3c(c2)C=C(C(=O)Nc2ccc([S+]([O-])Cc4nc(C)cc(C)n4)cc2)CCN3CC(C)C)cc1` (stereo not drawn) [Compound 230, 7-[4-(2-butoxyethoxy)phenyl]-N-[4-[[(4,6-dimethyl-2-pyrimidinyl)methyl]sulfinyl]phenyl]-1-isobutyl-2,3-dihydro-1-benzazepine-4-carboxamide], the inhibition at 1 µM was 98%.

For the compound `CCCCOCCOc1ccc(-c2ccc3c(c2)C=C(C(=O)Nc2ccc(C(O)c4cccc[n+]4[O-])c(C(F)(F)F)c2)CCN3CCC)cc1` (stereo not drawn) [Compound 13, 7-[4-(2-butoxyethoxy)phenyl]-N-[4-[hydroxy(1-oxidopyridin-2-yl)methyl]-3-trifluoromethylphenyl]-1-propyl-2,3-dihydro-1H-1-benzazepine-4-carboxamide], the inhibition at 1 µM turned out to be 100%.

`CCCCOCCOc1ccc(-c2ccc3c(c2)C=C(C(=O)Nc2ccc([S+]([O-])Cc4nnnn4CC)cc2)CCN3CC(C)C)cc1` (stereo not drawn) [Compound 242, 7-[4-(2-butoxyethoxy)phenyl]-1-isobutyl-N-[4-[[(1-ethyl-tetrazol-5-yl)methyl]sulfinyl]phenyl]-2,3-dihydro-1-benzazepine-4-carboxamide]: the inhibition at 1 µM amounted to 94%.

As for `CCCCOCCOc1ccc(-c2ccc3c(c2)C=C(C(=O)Nc2ccc(CCc4nncn4CCC)cc2)CCN3CC(C)C)cc1` [Compound 152, 7-[4-(2-butoxyethoxy)phenyl]-1-isobutyl-N-[4-[2-(4-propyl-4H-1,2,4-triazol-3-yl)ethyl]phenyl]-2,3-dihydro-1H-benzazepine-4-carboxamide], the inhibition at 1 µM stood at 97%.

For `CCCCOCCOc1ccc(-c2ccc3c(c2)C=C(C(=O)Nc2ccc(S(=O)(=O)Cc4nccn4CCCC(=O)NC)cc2)CCN3CC(C)C)cc1` [Compound 425, 7-[4-(2-butoxyethoxy)phenyl]-N-[4-[[[1-[4-(methylamino)-4-oxobutyl]-1H-imidazol-2-yl]methyl]sulfonyl]phenyl]-1-isobutyl-2,3-dihydro-1H-1-benzazepine-4-carboxamide], the inhibition at 1 µM is 100%.

Consider `CCCCOCCOc1ccc(-c2ccc3c(c2)C=C(C(=O)Nc2ccc(SCCn4cnnc4)cc2)CCN3CC(C)C)cc1` [Compound 154, 7-[4-(2-butoxyethoxy)phenyl]-N-[4-(4H-1,2,4-triazol-4-ylethylthio)phenyl]-1-isobutyl-2,3-dihydro-1H-benzazepine-4-carboxamide], for which the inhibition at 1 µM was found to be 100%.

In the case of `CCCCOCCOc1ccc(-c2ccc3c(c2)C=C(C(=O)Nc2ccc(SCc4cnc5n4CCCC5)cc2)CCN3CC(C)C)cc1` [Compound 404, 7-[4-(2-butoxyethoxy)phenyl]-1-isobutyl-N-[4-[[(5,6,7,8-tetrahydroimidazo[1,2-a]pyridin-3-yl)methyl]thio]phenyl]-2,3-dihydro-1H-1-benzazepine-4-carboxamide], the inhibition at 1 µM is 85%.

In the case of `CCCCOCCOc1ccc(-c2ccc3c(c2)C=C(C(=O)Nc2ccc([S+]([O-])Cc4cccnn4)cc2)CCN3CC(C)C)cc1` (stereo not drawn) [Compound 259, 7-[4-(2-butoxyethoxy)phenyl]-1-isobutyl-N-[4-[(3-pyridazinylmethyl)sulfinyl]phenyl]-2,3-dihydro-1-benzazepine-4-carboxamide], the inhibition at 1 µM was determined as 88%.

For the compound `CCCCOCCOc1ccc(-c2ccc3c(c2)C=C(C(=O)Nc2ccc([S+]([O-])Cc4cncn4CCC)cc2)CCN3CCC)cc1` (stereo not drawn) [Compound 375, 7-[4-(2-butoxyethoxy)phenyl]-1-propyl-N-[4-[[[1-propylimidazol-5-yl]methyl]sulfinyl]phenyl]-2,3-dihydro-1-benzazepine-4-carboxamide], the inhibition at 1 µM is 92%.

With `CCCCOCCOc1ccc(-c2ccc3c(c2)C=C(C(=O)Nc2ccc([S+]([O-])CC4=NNCN4CCC)nn2)CCN3CC(C)C)cc1` (stereo not drawn) [Compound 68, 7-[4-(2-butoxyethoxy)phenyl]-1-isobutyl-N-[6-[(4-propyl-1H-1,2,4-triazol-3-yl)methylsulfinyl]pyridazin-3-yl]-2,3-dihydro-1H-1-benzazepine-4-carboxamide], the inhibition at 1 µM came out at 97%.

Turning to `CCCCOCCOc1ccc(-c2ccc3c(c2)C=C(C(=O)Nc2ccc(SCc4nncn4CCC)nc2)CCN3CC(C)C)cc1` [Compound 53, 7-[4-(2-butoxyethoxy)phenyl]-1-isobutyl-N-[2-(4-propyl-4H-1,2,4-triazol-3-yl)methylthiopyridin-5-yl]-2,3-dihydro-1H-1-benzazepine-4-carboxamide], the inhibition at 1 µM is 98%.

Consider `CCCCOCCOc1ccc(-c2ccc3c(c2)C=C(C(=O)Nc2ccc([S+]([O-])Cc4cccnc4C)nc2)CCN3CC(C)C)cc1` (stereo not drawn) [Compound 272, 7-[4-(2-butoxyethoxy)phenyl]-1-isobutyl-N-[6-[[(2-methyl-3-pyridinyl)methyl]sulfinyl]-3-pyridinyl]-2,3-dihydro-1-benzazepine-4-carboxamide], for which the inhibition at 1 µM was determined as 98%.

`CCCCOCCOc1ccc(-c2ccc3c(c2)C=C(C(=O)Nc2ccc(SCc4cncn4C(C)C)cc2)CCN3CC(C)C)cc1` [Compound 383, 7-[4-(2-butoxyethoxy)phenyl]-1-isobutyl-N-[4-[[[1-isopropylimidazol-5-yl]methyl]sulfanyl]phenyl]-2,3-dihydro-1-benzazepine-4-carboxamide]: the inhibition at 1 µM came out at 93%.

Staying with this experiment, now noted: test compound 1 μM, [125I]-RANTES as ligand, room temperature, 40 minutes.
In the case of `C#CCn1cncc1C[S+]([O-])c1ccc(NC(=O)C2=Cc3cc(-c4ccc(OCCOCCCC)cc4)ccc3N(CC(C)C)CC2)cc1` (stereo not drawn) [Compound 443, 7-[4-(2-butoxyethoxy)phenyl]-1-isobutyl-N-[4-[[(1-(2-propin-1-yl)imidazol-5-yl)methyl]sulfinyl]phenyl]-2,3-dihydro-1H-1-benzazepine-4-carboxamide], the “Binding Inhibitory Ratio (%)” value was found to be 100%.

In the case of `CCCCOCCOc1ccc(-c2ccc3c(c2)C=C(C(=O)Nc2ccc(SCc4nccn4CCCO)cc2)CCN3CC(C)C)cc1` [Compound 436], the “Binding Inhibitory Ratio (%)” value amounted to 100%.
